From US8658677B2, “Pyridyl-2-methylamino compounds, compositions and uses thereof” (Aria Neurosciences Inc., priority 2011, dated 2014)
Entries after “also recorded” stand apart in the source; their conditions may differ.

Experiments:
Aβ40 [1] = target: T1, Aβ40 (Homo sapiens, UniProt P05067); test: Thioflavin-T fibrillization assay; type: biochemical
T1 construct: host or cells: chemical solid-phase peptide synthesis (no expression host)
Source text: Synthetic Aβ 1-40 peptide (sequence: […]) was synthesized at the W.M. Keck Foundation Facility (Yale University, New Haven, Conn.) by solid-phase technique on a p-methyl-benzhydrylamine resin, using a Biosearch SAM 2 synthesizer and purified by high performance liquid chromatography (HPLC) with the use of a reverse-phase support medium (Delta-Bondapak) on a 0.78×30 cm column with a 0-66% linear gradient of acetonitrile in 0.1% (v/v) trifluroacetic acid, as previously described. The peptide content of the eluate was monitored by measurement of its absorption at 214 nm. To verify the sequence and purity of the peptide, linear, time-of-flight mass spectrometry was performed at the Skirball Institute at New York University. For aggregation studies the peptide was diluted in 1,1,1,3,3,3-hexafluoro-2-propanol (HFIP; Sigma St. Loius, Mo.) at a concentration of 10 mM/mL, aliquoted and lyophilized. HFIP treatment renders peptides monomeric with minimal β-sheet content. Lyophilized peptides were stored at −80° C. and resuspended immediately prior to each experiment in the appropriate diluent.
The effect of compounds of the present invention on aggregation of Aβ 1-40 peptide was tested using a Thioflavin-T assay according to previously published methods. Aggregation of Aβ 1-40 incubated alone was measured for comparison. Aβ 1-40 was HFIP treated (as described above) and reconstituted in 100 mM Tris buffer (pH 7.4) to obtain a 100 μmol/L concentration. Stock of investigational compounds (50 mmol/L stock diluted in DMSO) was added to Aβ 1-40 to achieve of a concentration 10 or 100 μmol/L of investigational compound in 100 μmol/L of Aβ 1-40. All incubations were performed over a period of 7 days at 37° C. and the incubation mixture was slowly mixed for 6 hours every 24 h. At the conclusion of the experiment samples containing 15 μg of Aβ 1-40 with and without investigational compounds were added to 1 mL of 50 mM glycine, pH 9.2 and 2 μM of Thioflavin-T (Sigma Chemical, Co.; St. Louis, Mo.). Fluorescence was measured at an excitation of 435 nm and an emission of 485 nm in a Perkin-Elmer LS-50B fluorescence spectrophotometer (Perkin Elmer Instruments, Shelton, Conn.). A time scan of fluorescence was performed and three values after the decay reached a plateau (280, 290, 300 seconds) were averaged. The background fluorescence of 40 μL of Tris buffer added to 2 μM/L of Thioflavin-T solution was subtracted. Samples were run in duplicate. Differences in amount of fibrils formed in the presence of investigational compounds were evaluated by means of one-way ANOVA followed by a Dunnet post-hoc test using Statistica (version 6.1, StatSoft Inc., OK).
[…] monomerized synthetic Aβ40 was incubated in 0.1M Tris pH 7.0, T=37° C. for 8 days in the presence of 0-100 μM concentration of compounds. […] An arrow indicates Aβ monomers clustered in ill developed protofibril. (C) Oligomerization assay. ARN4261 and ARN4224 reduced the amount of Aβ oligomers by 78% and 74%, respectively p<0.001. A compound 69b (GKLVFNmgA) was used as a positive control. 69b is homologous to Aβ sequence 17-21 and contains N-methyl glycine (Nmg), which renders it capable of anti-fibrillization and anti-oligomerization effect. (D) Principle of oligomerization assay. 100 μM Aβ40 was aggregated alone or with the addition of 10 μM of tested compounds [1:10 compound: Ab ratio] for 24 h in conditions promoting oligomers assembly, i.e., DMEM/F-12 medium+0.2% SDS, T=4° C. Prior to SDS-PAGE in non-reducing conditions samples were treated with glutaraldehyde. A strong smear of Aβ oligomers is seen between 37 and 70 KDa markers (arrows) in lane 2, and a dense band below the 25 KDa marker reflects Aβ monomers non-dissociated by 10% polyacrylamide gel. No oligomers above 37 KDa marker are seen in lane 1 containing only Aβ monomers run as a control. […] (E) TEM of Aβ oligomers. […] Yellow arrowhead indicates smaller oligomers.

Aβ40 [2] = test: Secretion of Aβ40 by 751APPSW CHO cells (sandwich ELISA); type: cell-based; settings: 48 hr; for Emax: read-out: EMAX of Aβ40 production inhibition; for IC50: read-out: IC50% of Aβ40 production
Experimental: In addition to studying the effect of ARN4261 and ARN2966 on Aβ oligomerization and fibrillization, we have explored their properties in respect to the modulation of Aβ production using CHO clones stably transfected with WT human APP751 and double Swedish APP751 mutant (KM670/671NL). The results in FIGS. 3(A) and 3(B) show inhibitory effect of ARN4261 and ARN2966 on secretion of Aβ40 and Aβ42 by 751APPSW CHO cells exposed to ARN compounds for 48 hr. Values are expressed as % of Aβ40 and Aβ42 levels in conditioned media (CM) of untreated cells. FIG. 3(C) Concentrations of Aβ40 and Aβ42 in 751APPSWCHO cell CM under increasing concentrations of ARN2966. 751APPSWCHO cells secrete Aβ40 and Aβ42 in proportions 9:1, akin to the proportions of Aβ peptides produced by neurons. […] Aβ40 and Aβ42 levels were determined using sandwich ELISA where C-terminal specific anti Aβ40 and Aβ42 mAbs were used as capture Abs and biotinylated 4G8 as the detection Ab. […] We also confirmed that ARN2966 inhibited secretion of Aβ by primary neuronal cultures derived from Tg2576 AD Tg mice.

APP = test: APP, C99, C83 and sAPP levels in 751APPSW CHO cells (immunoblot, immunostaining); type: cell-based, human
APP mRNA = APP mRNA level in 751APPSW CHO cells; type: cell-based, human
Experimental: D. APP was immunoprecipitated with 22C11 mAb against its N-terminus. Representative radiographs (B) and densitometric results averaged from three independent experiments are shown (A). […] Two sets of experiments were conducted using either actin or GAPDH as housekeeping genes.

T1 sequence (P05067 672-711): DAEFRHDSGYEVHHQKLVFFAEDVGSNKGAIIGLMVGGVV

| Compound | EC50 (Aβ40 [1]; 100 μM HFIP monomerized synthetic Aβ40, 0.1M Tris pH 7.0, 37° C., 8 days, 0-100 μM compound, read-out: EC50 of fibril reduction) [nM] | Emax (Aβ40 [1]; pH 7, read-out: EMAX (% of maximal fibril reduction)) [%] | TEM analysis of Aβ fibrils (Aβ40 [1]; transmission electron microscopy) | Emax (Aβ40 [2]) [%] | IC50 (Aβ40 [2]) [nM] | level of APP FL, C99 and C83 in cell lysates (APP; 751APPSW CHO clone) | APP mRNA level (APP mRNA) | behaviour in anti-Aβ aggregation assays (Aβ40 [1]; compared with ARN4261) | anti-APP immunostaining with 22C11 mAb (APP; 751APPSW CHO cells) | concentrations at which reduction in APP FL level is seen (APP; 751APPSW CHO clone) [µM] | sAPP (sAPPα and total sAPP stub) in conditioned media (APP; 751APPSW CHO clone) | level of β-actin (APP; 751APPSW CHO clone, increasing concentration) |
| --- | --- | --- | --- | --- | --- | --- | --- | --- | --- | --- | --- | --- |
| Oc1ccccc1N=Cc1ccccn1 [ARN4261, 2-(Pyridin-2-ylmethyleneamino)-phenol] | 16000 | 88 | markedly reduced density and length of Aβ fibrils | 97.4 ± 0.25 | 820 | reduce the level of full length APP (APP FL) and both C99 and C83 APP stubs; also recorded: reduced levels of full length APP (APP FL) and C99 and C83 APP stubs | lack of substantial effect | – | – | – | – | – |
| Oc1ccccc1NCc1ccccn1 [ARN2966, 2-[(pyridine-2-ylmethyl)-amino]-phenol] | – | – | – | 97 ± 0.3 | 810 | reduce the level of full length APP (APP FL) and both C99 and C83 APP stubs; also recorded: reduced levels of full length APP (APP FL) and C99 and C83 APP stubs | No change; also recorded: lack of substantial effect | behaves comparably to ARN4261 | reduced without evidence of staining redistribution; also recorded: Reduced anti-APP staining | ≥ 10 | reduced levels | no apparent change |
